Source: US20160039852A1, “THERAPEUTIC USES OF BISPHOSPHONATES” (THE UNIVERSITY OF SHEFFIELD, priority 2013, published 2016)
Entries after “also recorded” stand apart in the source; their conditions may differ.

Legend:
[1] = tested on: human mesenchymal stem cells (hMSC); assay: Colony Forming Unit-Fibroblast assay (CFU-F), clonogenic ability of hMSC; type: cell-based; details: 14 days, listed as Zol
Protocol: Human MSC from established cultures were plated at 10 cells/cm^2 in duplicates in MSC medium. The plates were incubated for 14 days at 37° C. in 5% carbon dioxide in air. At day 14 cultures were stained with Wright's Giemsa stain (VWR International, Leicestershire, UK). Briefly, media was aspirated and the plates were washed with PBS (Gibco). The plates were air dried for 5 minutes and fixed with methanol (Fisher Scientific, Loughborough, UK) for 5 minutes. Wright's Geimsa stain (VWR International) was thereafter added to the plates for 5 minutes and then plates were washed under running tap water. The purple stained colonies were counted using an inverted light microscope (Leica Microsystems, UK). Colonies containing a minimum of 50 cells were considered as one Colony forming unit-fibroblast (CFU-F).

[2] = tested on: 5T33 Multiple Myeloma line; assay: γH2AX DNA damage foci in 5T33 multiple myeloma line after irradiation; type: cell-based, murine; details: 1 μM Zol for 3 days prior to 1Gy, γH2AX 4 h later
Protocol: 5T33MM were exposed to 1 μM Zol for 3 days prior to irradiation at 1Gy and assessment of γH2AX 4 h later (Zol). UI, are hMSC non irradiated, PBS, are hMSC irradiated in absence of Zol. Data are expressed as mean±SEM and were analysed by one way ANOVA and Bonferroni post-test for multiple comparison *p<0.05, **p<0.01, ***p<0.001
DNA damage was induced by exposing hMSC to ^137Cs Gamma source. Cells were washed with PBS and fixed with 4% Para-formaldehyde for 15mins. Cells were then washed with PBS permeabilized with 0.5% Triton-X (Sigma, UK) for 2mins and blocked with 5% normal goat serum (DAKO, Glostrup, Denmark) in PBS for 1 hr. This was followed by incubation with primary antibody, anti-phospho histone H2AX (Ser139) (Millipore, Massachusetts, USA) used at 1:800 in 5% normal goat serum, overnight at 4° C. Cells were then washed in PBS and incubated in secondary Anti mouse IgG Fluorescein Isothiocyanate (FITC) conjugated (Insight Biotechnology, Santa Cruz, USA) at 1:200 in PBS for 1 hour at room temperature. The cover-slips were mounted on slides with mounting media (VectaShield) containing 4′,6-diamidino-2-phenylindole (DAPI) to stain the nuclei. […] Five to seven fields consisting of 25 cells in total were randomly selected from a tile scan (20×) and individual cells viewed at 63× were then scored for γH2AX DNA damage foci using ImageJ 1.45 software (http://rsbweb.nih.gov/ij/).

mTOR pathway = assay: Western blot of mTOR pathway effectors in osteosarcoma line MG63; type: cell-based, human; details: MG63, Zol (1 μM) for 72 h, n=3
Protocol: (B) A representative example of human mesenchymal stem cells (MSC) and human osteosarcoma cell line MG63 cultured in presence or absence of Zol (1 μM) for 72 h and assessed for the expression of phosphorylated (Ser 473) AKT, AKT, phosphorylated p70S6K p70S6K and GAPDH by western blot;
Protein lysates (50 μg) were diluted in equal volume of 2× Laemmli buffer (Gibco) containing Dithiothreitol (DTT, Sigma,UK). The samples were heated at 95° C. for 5 minutes and loaded on a 12% Tris-glycine gel. After electro-blotting, membranes were blocked with 5% Bovine serum albumin (BSA) in 0.1% Tween 20 in PBS (PBS-T) for detection of glyceraldehyde-3-phosphate dehydrogenase (GAPDH) and 5% dry milk in PBS-T for detection of unprenylated RAP1A (Santacruz Biotechnology, Santa Cruz, USA). […] Detection was carried out using enhanced chemi-luminescence plus ECL reaction kit (GE Healthcare, Buckinghamshire, UK) and quantification of protein expression was carried out using image J software.
To test this, the inventors assessed the phosphorylation state of two effectors downstream of TORC1 and TORC2, p-P70S6K and pAKT (Ser473) respectively (FIG. 7A), in hMSC in presence or absence of Zol. […]

[3] = tested on: normal human dermal fibroblasts; assay: Human dermal fibroblast growth, cumulative population doublings; type: cell-based
Excerpt: Cultures (n=3) grown in PBS senesced after 17-21 population doublings (PDs) (square symbols) whereas cultures grown in presence of Zol were still proliferating after 27-34 PDs (triangle symbols).

`O=P(O)(O)C(O)(Cn1ccnc1)P(=O)(O)O` [Zoledronate] was tested, and the “number of clonogenic progenitors (CFU-F)” value ([1]; hMSC at passage 8, not irradiated, versus PBS control) was “significant increase; also recorded: higher clonogenic ability”, the “number of CFU-F after irradiation (clonogenic ability)” value ([1]; hMSC irradiated at 1, 3 and 5Gy versus non irradiated, in presence of Zol) was “no significant difference; also recorded: complete rescue of the clonogenic ability” and the “DNA repair capacity (γH2AX foci)” value [2] was “does not enhance the DNA repair capacity”. For the same compound, the p-P70S6K (mTOR pathway) was “no significant difference”, the “pAKT (Ser473)” value (mTOR pathway) was “no significant difference” and the “lifespan of normal human dermal fibroblasts” value [3] was “extends lifespan”. The “population doublings after which cultures were still proliferating” value ([3]; human dermal fibroblasts in presence of Zol, PBS cultures senesced after 17-21 PDs, n=3) was 27-34 PDs.
